Literature values in patent publication US20100087769A1, “BIOCIDIC MEDICAL DEVICES, IMPLANTS AND WOUND DRESSINGS” (OPLON B.V., priority 2007, published 2010).
“Also recorded” adds a separate entry of the source. Where two headings read alike, the source gives them in different places.

What was measured:
[1] = test system: aerobic gram-negative bacilli, P. aeruginosa; conditions: spectrum as listed in the cell
[2] = not given; remark: listed apart in the source
[3] = test system: Aspergillus or Fusarium spp.; conditions: powder, 6 million units/g; four burn patients
[4] = test system: other Candida spp. and fungi
[5] = test system: Candida albicans
[6] = topical
[7] = test system: MRSA; conditions: topical; 1% silver sulfadiazine, 2% mupirocin, 2% fusidic acid

## NCc1ccc(S(N)(=O)=O)cc1 [Mafenide acetate]
In vivo
  Major toxicity: Metabolic
[1]
  Antibacterial activity: Broad spectrum against
[2]; burns of 40 to 79% TBSA
  reduction in mortality: greater than 10%
[2]; patients with smaller or much larger burn injuries
  effect on mortality: only a minimal effect

## C[C@@H]1[C@H](O)[C@@H](C)/C=C/C=C/CC/C=C/C=C/C=C/C=C/C(O[C@H]2O[C@H](C)[C@@H](O)[C@H](N)[C@@H]2O)CC2O[C@](O)(CC(O)C(O)CCC(O)CC(O)CC(O)CC(=O)O[C@H]1C)CC(O)C2C(=O)O (stereo partly drawn) [Nystatin]
[3]
  treatment of angioinvasive fungal infections: effective
[4]
  concentration needed to inhibit: 6.25 µg/mL
[5]
  concentration that inhibits: 3 µg/mL

## O=[N+]([O-])[O-].[Ag+] [Silver nitrate]
[6]
  Eschar penetration: None
topical
  Major toxicity: Electrolyte
[1]
  Antibacterial activity: Bacteriostatic against; also recorded: limited antifungal

## CC(=O)O[C@H]1C[C@@]2(C)[C@@H](C[C@@H](O)[C@H]3[C@@]4(C)CC[C@@H](O)[C@@H](C)[C@@H]4CC[C@@]32C)/C1=C(\CCC=C(C)C)C(=O)O [fusidic acid]
[7]
  reducing local wound bacterial counts and preventing systemic infection: equally effective

## C/C(=C\C(=O)OCCCCCCCCC(=O)O)C[C@@H]1OC[C@H](C[C@@H]2O[C@H]2[C@@H](C)[C@H](C)O)[C@@H](O)[C@H]1O [mupirocin, pseudomonic acid A]
[7]
  reducing local wound bacterial counts and preventing systemic infection: equally effective
